Like-named read-outs stand apart in the source and are kept apart here.
Legend:
[1] = test system: rat hearts subjected to ischemia/reperfusion; experiment: myocardial infarct size after LAD occlusion and reperfusion, TTC staining; type: in vivo, Sprague-Dawley rats; settings: 4 hr reperfusion; for infarct size/area at risk: mean±SEM
Method: (§1) Ischemia/reperfusion protocols were performed using Sprague-Dawley rats (Harlan Sprague-Dawley, Indianapolis, Indiana). Left anterior descending (LAD) coronary artery occlusion was performed by tying off the LAD artery near its origin using a suture. Glucan phosphate was employed in the ischemia reperfusion (I/R) studies.
Sprague-Dawley rats (250-300 g) were treated, with (1→3)-β-D-glucans at a concentration of 40 mg/kg one hour before the hearts were subjected to 45 minutes of occlusion of the left anterior descending (LAD) coronary artery, followed by reperfusion for 4 hours. At the completion of the experimental protocol, the heart was removed, rinsed free of blood, stained with 1% Evans Blue, and sectioned into five slices, followed by incubation in triphenyltetrazolium chloride (TTC) solution. Viable myocardium (risk area) was stained with TTC while the necrotic myocardium was pale white. The area of infarction on both sides of each slice was analyzed by an image analyzer (Alpha Imager 2000), corrected for each slice weight and summed for each left ventricle. The infarct areas were expressed as a percentage of risk area as well as a percentage of left ventricle and the risk areas were expressed as a percentage of left ventricle.
Glucan phosphate (40 mg/kg) was administered to rats via intravenous route 5 min. after the rat hearts were subjected to occlusion of the left afterior descending (LAD) coronary artery, followed by 4 hr. reperfusion. Subsequently, the hearts were harvested and the infarct size/area at risk was determined using TTC staining and image analysis as described previously. FIG. 19 illustrates results, with infarct size expressed as percentage of risk area and risk area expressed as percentage of the left ventricle.

[2] = test system: NF-κB; experiment: EMSA of nuclear NF-κB binding activity in rat myocardium after I/R; type: in vivo, Sprague-Dawley rats; settings: 40 mg/Kg one hr before ischemia (I45 or I15R30)
Method: Rats were pretreated with glucan (40 mg/Kg) for one hr. before being subjected to 45 min. of ischemia (I45), as well as 15 min. ischemia followed by 30 min. reperfusion (I15R30). Nuclear proteins were isolated and analyzed by EMSA. Results are expressed as means±SEM for 5 hearts at each time point. P<0.05 as compared to normal (N).
as §1
(§2) To investigate NF-κB activation in vivo, rat hearts were subjected to various periods of ischemia or ischemia and reperfusion (I/R). For example, levels of IκBα and phosphorylated IκBα proteins in cell cytoplasm following ischemia were evaluated by Western blot with anti-IκBα or antibody specific for the phosphorylated […] (FIG. 9a). NF-κB binding activity in the nucleus following onset of ischemia was analyzed by electrophoretic mobility shift assay (EMSA) (FIG. 10a). […]
NF-κB nuclear binding activity in rat myocardium after in vivo I/R was also determined. […]

[3] = test system: IκBα; experiment: Western blot of cytoplasmic IκBα in rat myocardium after I/R; type: in vivo, Sprague-Dawley rats; settings: 40 mg/Kg one hr before 15 min ischemia and 30 min reperfusion
Method: FIG. 15 is a graphic representation of effect of glucan on loss of IκBα from rat myocardial cytoplasm following I/R. Rats were pretreated with glucan (40 mg/Kg) for one hr. before being subjected to 15 min. of ischemia and 30 min. of reperfusion. Cytoplasmic proteins were isolated and levels of IκBα protein determined by Western blot analysis. Results were expressed as means±SEM for 5 hearts at each time point. P<0.05 as compared to normal (N).
as §1, §2

[4] = test system: TNFα mRNA; experiment: RT-PCR of TNFα mRNA in rat myocardium after I/R; type: in vivo, Sprague-Dawley rats; settings: 40 mg/Kg 1 hr before 15 min ischemia and 1 hr reperfusion
Method: FIG. 17 depicts RT-PCR analysis of total RNA obtained from rat myocardium pretreated with glucan (40 mg/Kg) for 1 hr. prior to 15 min. ischemia and 1 hr. reperfusion. TNFα and GAPDH are labeled at right to indicate the position of the corresponding RNA. M is a 100 bp DNA ladder. As indicated, pretreatment with glucan (I15′R1 hr+Glucan) decreases myocardial TNFα mRNA expression after I/R.
as §1
The inventors also investigated whether (1→3)-β-D-glucans regulate TNFα gene expression. […] (1→3)-β-D-glucan down-regulates LPS-induced TNFα mRNA expression in vivo.

[5] = test system: cardiac myocyte apoptosis; experiment: TUNEL assay of cardiac myocyte apoptosis after I/R; type: in vivo, Sprague-Dawley rats; settings: 40 mg/kg 1 hr before 30 min ischemia, 3 hr reperfusion; untreated I/R hearts 17.17±1.41%
Method: as §1
The effects of (1→3)-β-D-glucan on apoptosis were investigated using rats treated with (1-3)-β-D-glucan (40 mg/kg) 1 hr. before the. hearts were subjected to 30 min. of ischemia followed by 3 hr. reperfusion. Upon completion of the protocol, the hearts were removed, rinsed free of blood, and perfused with freshly prepared phosphate-buffered 4% formaldehyde. Heart segments distal to the ligation were horizontally sliced into 2 mm sections and fixed with phosphate-buffered 4% formaldehyde at 4° C. overnight. The terminal deoxynucleotidyl transferase-mediated dUTP nick end-labeling (TUNEL) technique (Gavrieli, Y., et al., J. Cell Biol. (1992) 119: 493-501) was used to quantitate the level of apoptosis, using an In Situ Cell Death Detection Kit (Roche Diagnostics) and manufacturer's instructions. Briefly, three slides from each block were evaluated to determine the percentage of TUNEL positive cells. For each slide, four fields were randomly examined using a defined rectangular field area with magnification of 200×. A total of 100 cells were counted in each field. […]

[6] = test system: NF-κB; experiment: EMSA of NF-κB nuclear binding activity in liver and lung after cecal ligation and puncture (CLP); type: in vivo, ICR/HSD mice; settings: for decrease of liver NF-κB binding activity / decrease of lung NF-κB binding activity: tissue 3 hours after CLP
Method: (§3) Nuclear extracts were prepared by homogenizing tissue in hypotonic buffer containing protease inhibitors and incubating the homogenates on ice for approximately 30 minutes with gentle agitation. After cells were lysed, nuclei were collected by centrifugation (14,000 revolutions/min for 5 minutes). Nuclear proteins were extracted by incubating the nuclear fraction on ice for 30 minutes in hypertonic salt buffer containing protease inhibitors. Nuclear extract supernatant was harvested after centrifugation, then stored at −80° C. Protein was quantified by the BCA microprotein assay (Pierce, Rockford, Ill.).
(§4) The electrophoretic mobility shift assay (EMSA) was performed using double-stranded consensus binding site oligonucleotides for NF-κB and NF-IL6 (C/EBP, CCAAT enhancer binding protein), obtained from Santa Cruz Biotechnology (Santa Cruz, Calif.). Oligonucleotides were end-labeled with [γ-^32P]-labeled adenosine triphosphate (Amersham, Arlington Heights, Ill.) with T4 polynucleotide kinase (Promega, Madison, Wis.), using methods known to those of skill in the art. Binding assays were performed in 10 μl of binding reaction mixture containing 10 μg of nuclear proteins and [γ-^32P]-labeled NF-κB or NF-IL6 oligonucleotides. The binding reaction mixture was incubated at room temperature for 20 minutes, then electrophoresed on 4% non-denaturing polyacrylamide gel electrophoresis (PAGE) gels. Specificity of binding was confirmed by addition of a 10-fold excess of cold oligonucleotide to separate reaction mixtures. A 10-fold excess of cold oligonucleotide containing the AP-1 binding site was added to separate reaction mixtures as an additional control. After PAGE, gels were dried and exposed to Kodak X-omat® film at −70° C. Autoradiograms were quantified by scanning densitometry with a Sun IPC workstation running Bioimage® software (Millipore, Bedford, Mass.).
(§5) In studies of (1→3)-β-D-glucan effects on tissue damage due to sepsis, blood (˜0.3 ml) was obtained by open heart puncture from groups of 3 ICR/HSD mice subjected to cecal ligation and puncture (CLP), performed according to the method of Baker et al., Suryery (1983) 94: 331-335, as described by Ayala et al., Circ. Shock (1992) 36: 191-199. Mice subjected to laparotomy only (LO) served as surgical and anesthesia controls. Negative controls were not subjected to either procedure. Blood samples were collected from each group at 1, 2, 4, 8, and 24 hours after surgery. Samples were inoculated into prereduced anaerobically sterilized chopped meat carbohydrate broth (Carr-Scarborough, Stone Mountain, Ga.) under a constant stream of anaerobic carbon dioxide in a VPI Inoculator (Bellco Glass, Vineland, N.J.). After mixing, 1 ml of inoculated broth was aseptically removed from each 6-ml rubber-stoppered anaerobic tube into a sterile loose-capped aerobic culture tube. Both aerobic and anaerobic culture tubes were incubated at 37° C. for 72 hours.
(§6) In pretreatment protocols, 45 mice were randomly divided into 3 groups of 15 mice per group. Group 1 received isovolumetric saline solution intraperitoneally 1 hour before CLP. Group 2 received glucan phosphate (1 mg/mouse=50 mg/kg, intraperitoneally) 1 hour prior to CLP. Group 3 received scleroglucan (1 mg/mouse=50 mg/kg, intraperitoneally) 1 hour prior to CLP. To assess tissue transcription factor activation and cytokine messenger RNA (mRNA) levels, liver and lung tissue were harvested from 5 mice per group at 3 hours after surgery. […] Laparoscopy-only (LO) controls and negative controls received the same saline, glucan phosphate, and scleroglucan treatment as CLP mice.
(§7) In post-treatment protocols, 30 mice were subjected to CLP. These 30 mice were then randomly divided into 2 groups of 15 mice per group. Group 1 received isovolumetric saline solution intravenously 15 minutes post surgery. Group 2 received glucan phosphate (1 mg/mouse=50 mg/kg, intravenously) 15 minutes postsurgery. […]

[7] = test system: NF-IL6; experiment: EMSA of NF-IL6 nuclear binding activity in liver and lung after CLP; type: in vivo, ICR/HSD mice; settings: for decrease of liver NF-IL6 binding activity / decrease of lung NF-IL6 binding activity: tissue 3 hours after CLP
Method: as §3, §4, §5, §6, §7

[8] = test system: TNF-α mRNA; experiment: RT-PCR of TNF-α mRNA levels in liver and lung after CLP; type: in vivo, ICR/HSD mice
Method: (§8) Cytokine reverse transcriptase-polymerase chain reaction (RT-PCR) assays were performed using standard techniques known to those of skill in the art. Upstream and downstream primers for murine TNF-α and IL-6 were used to detect presence of those cytokines. Reduced glyceraldehyde phosphate dehydrogenase (GAPDH) was used as the gene transcript control.
as §5
(§9) In pretreatment protocols, 45 mice were randomly divided into 3 groups of 15 mice per group. Group 1 received isovolumetric saline solution intraperitoneally 1 hour before CLP. Group 2 received glucan phosphate (1 mg/mouse=50 mg/kg, intraperitoneally) 1 hour prior to CLP. Group 3 received scleroglucan (1 mg/mouse=50 mg/kg, intraperitoneally) 1 hour prior to CLP. […]
(§10) Survival trends were compared with the Cox proportional hazard and log-rank procedures. […] Differences in bacteremia between LO and CLP groups were assessed with exact probability level determinations. […]

[9] = test system: IL-6 mRNA; experiment: RT-PCR of IL-6 mRNA levels in liver and lung after CLP; type: in vivo, ICR/HSD mice
Method: as §8, §5, §9, §10

[10] = test system: ICR/HSD mice subjected to CLP (polymicrobial sepsis); experiment: survival of mice with polymicrobial sepsis induced by CLP; type: in vivo; settings: for long-term survival rate: CLP control 20%
Method: as §5, §6
In post-treatment protocols, 30 mice were subjected to CLP. These 30 mice were then randomly divided into 2 groups of 15 mice per group. […]
as §10

[11] = molecular target: macrophage (1→3)-β-D-Glucan receptor; settings: cited from earlier work
[12] = posttreatment 50 mg/kg intravenously 15 minutes after CLP
[13] = pretreatment 50 mg/kg 1 hour before CLP
[14] = posttreatment 50 mg/kg intravenously 15 minutes post surgery
[15] = pretreatment 50 mg/kg, 3 hours after CLP

## (1→3)-β-D-glucan
[1]; 40 mg/kg one hour before 45 min LAD occlusion, untreated 48.82±3.03%
  infarct size/area at risk: 25.86±2.33%
[2]
  effect on I/R induced myocardial NF-κB binding activity: markedly reduced, but did not completely inhibit
[3]
  effect on cytoplasmic IκBα after I/R: prevent loss
[4]
  effect on I/R increase in TNFα mRNA levels: significantly inhibited
[5]
  apoptotic cell nuclei (TUNEL positive): 3.33±0.71%

## glucan phosphate
[6]; [12]
  decrease of liver NF-κB binding activity: 42%
  decrease of lung NF-κB binding activity: 54%
[6]; [13]
  decrease of liver NF-κB binding activity: 58%
  decrease of lung NF-κB binding activity: 81%
[7]; [12]
  decrease of liver NF-IL6 binding activity: 95%
  decrease of lung NF-IL6 binding activity: 63%
[7]; [13]
  decrease of liver NF-IL6 binding activity: 77%
  decrease of lung NF-IL6 binding activity: 68%
[8]; [14]
  suppression of hepatic TNF-α mRNA levels relative to CLP controls: 31%
  suppression of lung TNF-α mRNA levels relative to CLP controls: 28%
[8]; [15]
  suppression of hepatic TNF-α mRNA levels relative to CLP controls: 44%
[9]; [14]
  effect on hepatic IL-6 mRNA levels: not altered
  suppression of lung IL-6 mRNA levels relative to CLP controls: 30%
[9]; [15]
  suppression of hepatic IL-6 mRNA levels relative to CLP controls: 49%
[10]; single posttreatment injection 50 mg/kg intravenously 15 minutes after CLP
  long-term survival rate: 65%
[10]; single prophylactic injection 50 mg/kg intraperitoneally 1 hour before CLP
  long-term survival rate: 65%
[1]; 40 mg/kg intravenously 5 min after LAD occlusion
  reduction of infarct size/area at risk compared to control IR group: 53%
[1]; 40 mg/kg intravenously 5 min after LAD occlusion, control IR 51.03±3.69%
  infarct size/area at risk: 24.39±2.00%
[11]; low affinity, read-out: affinity for the macrophage (1→3)-β-D-glucan receptor
  Kd: 24 µM

## scleroglucan
[6]; [13]
  decrease of liver NF-κB binding activity: 54%
[6]; [15]
  effect on lung NF-κB nuclear binding activity: inhibited
[7]; [13]
  decrease of liver NF-IL6 binding activity: 38%
[7]; [15]
  effect on lung NF-IL6 nuclear binding activity: inhibited
[10]; 50 mg/kg intraperitoneally 1 hour before CLP
  effect on long-term survival: increased long-term survival
[11]; high affinity, read-out: affinity for the (1→3)-β-D-glucan receptor
  Kd: 0.011 µM
